{"source": "patent US9708251B2", "about": "“Unsaturated fatty alcohol alkoxylates from natural oil metathesis” (Stepan Company, priority 2012, dated 2017)", "assay_type_in_all_cases": "physicochemical", "key": {"[1]": {"test": "Agrichemical solvent analysis: active solubility", "conditions": "room temperature", "experimental": "Solvency strength of potential agrichemical solvents is evaluated by identifying the solubility level of three standard pesticides in the solvent by weight percent: 2,4-D acid, imidacloprid, and tebuconazole. […] The active material is also accurately weighed before addition. Initial amounts of active material are approximately: 2,4-D: 0.3 g; imidacloprid: 0.02 g; tebuconazole: 0.3 g. Solvent and pesticide active are combined, allowed to mix for 1 h at room temperature, and then inspected for the presence of undissolved active material. Additional active material is added in appropriately small increments until it no longer dissolves completely. This mixture is then stirred for 24 h at room temperature, and if the active has completely dissolved, additional active ingredient is added and the mixture is stirred another 24 h at room temperature. The percent solubility is recorded, and performance is compared with that of a standard agricultural solvent."}, "[2]": {"test": "Emulsion stability testing of nonionic emulsifiers, Hallcomid solvent series", "parameters": "key to 24 h separation, appearance / 1 h separation, appearance / 1 h separation, amount: C = creamy; CO = creamy oil; O = oil; GC = gritty cream; NS = no separation; OC = oily cream; key to Spon. (spontaneity): G = good; F = fair; P = poor"}, "[3]": {"test": "Surfactant phase behavior study (cross-polarized microscopy)", "conditions": "room temperature, in deionized water", "procedure,_shortened": "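Saturated analogs serve as comparators. Water dilutions of the product, stepped at 2-4% near transitions, equilibrated between slide and cover glass and assigned phase by cross-polarized microscopy texture at 100-400×, 20-22° C. Boundaries lie within ±5% actives; some samples checked by viscosity at 25° C.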"}, "[4]": {"test": "Emulsion stability testing of nonionic emulsifiers, Hallcomid solvent series", "parameters": "key: C = creamy; CO = creamy oil; O = oil; GC = gritty cream; NS = no separation; OC = oily cream", "conditions": "Bifenthrin 240 g/L in Hallcomid M-8-10, 34 ppm water"}, "[5]": {"test": "Emulsion stability testing of nonionic emulsifiers, aromatic solvent series", "parameters": "key to 24 h separation, appearance / 1 h separation, appearance / 1 h separation, amount: C = creamy; CO = creamy oil; O = oil; GC = gritty cream; NS = no separation; OC = oily cream; key to Spon. (spontaneity): G = good; F = fair; P = poor"}, "[6]": {"test": "Fabric cleaning: compaction (surfactant blends)", "experimental": "The sample is formulated into surfactant blends having high actives content. Two experimental derivatives, A12-13 and A12-21, are evaluated.\nIn a first experiment, a three-component surfactant blend is prepared. This blend comprises the experimental sample (30 wt. %), a linear alkylbenzene sulfonate (15 wt. %), and an alkyl ether sulfate (15 wt. %). The appearance and viscosity of the blend are compared with those of similar three-component blends in which a standard alcohol ethoxylate replaces the experimental sample.\nIn a second experiment, a two-component surfactant blend is prepared in which the experimental sample and a linear alkylbenzene sulfonate are combined at a 1:1 actives ratio, beginning with a high actives blend having a cloudy appearance. Water is gradually added and mixed with the surfactant blend at room temperature. […]"}, "[7]": {"conditions": "2,4-D diester 480 g/L in Hallcomid M-8-10, 34 ppm water"}, "[8]": {"conditions": "2,4-D diester 480 g/L in Hallcomid M-8-10, 1000 ppm water"}, "[9]": {"conditions": "Bifenthrin 240 g/L in Hallcomid M-8-10, 34 ppm water"}, "[10]": {"conditions": "Bifenthrin 240 g/L in Hallcomid M-8-10, 1000 ppm water"}, "[11]": {"conditions": "Tebuconazole 360 g/L in Hallcomid M-8-10, 34 ppm water"}, "[12]": {"conditions": "Tebuconazole 360 g/L in Hallcomid M-8-10, 1000 ppm water"}, "[13]": {"conditions": "2,4-D ester 480 g/L in Exxsol D-110, 34 ppm water"}, "[14]": {"conditions": "2,4-D ester 480 g/L in Exxsol D-110, 1000 ppm water"}, "[15]": {"conditions": "Bifenthrin 240 g/L in Aromatic 100, 34 ppm water"}, "[16]": {"conditions": "Bifenthrin 240 g/L in Aromatic 100, 1000 ppm water"}, "[17]": {"conditions": "Tebuconazole 360 g/L in N-methyl-2-pyrrolidone, 34 ppm water"}, "[18]": {"conditions": "Tebuconazole 360 g/L in N-methyl-2-pyrrolidone, 1000 ppm water"}, "[19]": {"conditions": "three-component blend: sample 30 wt. %, linear alkylbenzene sulfonate 15 wt. %, alkyl ether sulfate 15 wt. %"}}}
{"compound": "C=CCCCCCCCCOCCOCCOCCOCCOCCO", "note": "[A10-10]", "values": [{"measurement": "solubility of 2,4-D Acid in the solvent", "setting": "[1]", "value": 29.8, "unit": "weight percent"}, {"measurement": "solubility of Imidacloprid in the solvent", "setting": "[1]", "value": 2.8, "unit": "weight percent"}, {"measurement": "solubility of Tebuconazole in the solvent", "setting": "[1]", "value": 13.0, "unit": "weight percent"}, {"measurement": "1 h separation, amount", "setting": "[2]; [7]", "value": 5, "unit": "mL"}, {"measurement": "1 h separation, appearance", "setting": "[2]; [7]", "value": "C"}, {"measurement": "24 h separation, amount", "setting": "[2]; [7]", "value": 9.9, "unit": "mL"}, {"measurement": "24 h separation, appearance", "setting": "[2]; [7]", "value": "C"}, {"measurement": "Spon. (spontaneity)", "setting": "[2]; [7]", "value": "F"}, {"measurement": "1 h separation, amount", "setting": "[2]; [8]", "value": 6, "unit": "mL"}, {"measurement": "1 h separation, appearance", "setting": "[2]; [8]", "value": "C"}, {"measurement": "24 h separation, amount", "setting": "[2]; [8]", "value": 8, "unit": "mL"}, {"measurement": "24 h separation, appearance", "setting": "[2]; [8]", "value": "C"}, {"measurement": "Spon. (spontaneity)", "setting": "[2]; [8]", "value": "F"}, {"measurement": "1 h separation, amount", "setting": "[2]; [9]", "value": "NS"}, {"measurement": "Spon. (spontaneity)", "setting": "[2]; [9]", "value": "G"}, {"measurement": "1 h separation, amount", "setting": "[2]; [10]", "value": 6.5, "unit": "mL"}, {"measurement": "1 h separation, appearance", "setting": "[2]; [10]", "value": "CO"}, {"measurement": "24 h separation, amount", "setting": "[2]; [10]", "value": "4 O, 2 CO"}, {"measurement": "Spon. (spontaneity)", "setting": "[2]; [10]", "value": "F"}, {"measurement": "1 h separation, amount", "setting": "[2]; [11]", "value": 2, "unit": "mL"}, {"measurement": "1 h separation, appearance", "setting": "[2]; [11]", "value": "C"}, {"measurement": "24 h separation, amount", "setting": "[2]; [11]", "value": 5, "unit": "mL"}, {"measurement": "24 h separation, appearance", "setting": "[2]; [11]", "value": "C"}, {"measurement": "Spon. (spontaneity)", "setting": "[2]; [11]", "value": "F"}, {"measurement": "1 h separation, amount", "setting": "[2]; [12]", "value": 3.5, "unit": "mL"}, {"measurement": "1 h separation, appearance", "setting": "[2]; [12]", "value": "C"}, {"measurement": "24 h separation, amount", "setting": "[2]; [12]", "value": "2 CO, 5 C"}, {"measurement": "Spon. (spontaneity)", "setting": "[2]; [12]", "value": "F"}, {"measurement": "Isotropic Clear phase region", "setting": "[3]", "value": "0-100 % Actives Level"}, {"measurement": "24 h separation, amount", "setting": "[4]", "value": "NS"}, {"measurement": "1 h separation, amount", "setting": "[5]; [13]", "value": 1.5, "unit": "mL"}, {"measurement": "1 h separation, appearance", "setting": "[5]; [13]", "value": "CO"}, {"measurement": "24 h separation, amount", "setting": "[5]; [13]", "value": 4.1, "unit": "mL"}, {"measurement": "24 h separation, appearance", "setting": "[5]; [13]", "value": "C"}, {"measurement": "Spon. (spontaneity)", "setting": "[5]; [13]", "value": "F"}, {"measurement": "1 h separation, amount", "setting": "[5]; [14]", "value": 4, "unit": "mL"}, {"measurement": "1 h separation, appearance", "setting": "[5]; [14]", "value": "CO"}, {"measurement": "24 h separation, amount", "setting": "[5]; [14]", "value": "1 O, 4 CO"}, {"measurement": "Spon. (spontaneity)", "setting": "[5]; [14]", "value": "P"}, {"measurement": "1 h separation, amount", "setting": "[5]; [15]", "value": "NS"}, {"measurement": "24 h separation, amount", "setting": "[5]; [15]", "value": 3.5, "unit": "mL"}, {"measurement": "24 h separation, appearance", "setting": "[5]; [15]", "value": "C"}, {"measurement": "Spon. (spontaneity)", "setting": "[5]; [15]", "value": "F"}, {"measurement": "1 h separation, amount", "setting": "[5]; [16]", "value": "3 O, 5 CO"}, {"measurement": "24 h separation, amount", "setting": "[5]; [16]", "value": "4.5 O, 1 CO"}, {"measurement": "Spon. (spontaneity)", "setting": "[5]; [16]", "value": "F"}, {"measurement": "1 h separation, amount", "setting": "[5]; [17]", "value": 2, "unit": "mL"}, {"measurement": "1 h separation, appearance", "setting": "[5]; [17]", "value": "CO"}, {"measurement": "24 h separation, amount", "setting": "[5]; [17]", "value": 2.5, "unit": "mL"}, {"measurement": "24 h separation, appearance", "setting": "[5]; [17]", "value": "CO"}, {"measurement": "Spon. (spontaneity)", "setting": "[5]; [17]", "value": "P"}, {"measurement": "1 h separation, amount", "setting": "[5]; [18]", "value": 2.5, "unit": "mL"}, {"measurement": "1 h separation, appearance", "setting": "[5]; [18]", "value": "CO"}, {"measurement": "24 h separation, amount", "setting": "[5]; [18]", "value": 3, "unit": "mL"}, {"measurement": "24 h separation, appearance", "setting": "[5]; [18]", "value": "CO"}, {"measurement": "Spon. (spontaneity)", "setting": "[5]; [18]", "value": "P"}]}
{"compound": "CCC=CCCCCCCCCOCCOCCOCCOCCOCCOCCOCCOCCOCCO", "note": "(mixture of isomers) [A12-21]", "values": [{"measurement": "Appearance, 25° C.", "setting": "[6]; [19]", "value": "cloudy, flowable gel"}, {"measurement": "Viscosity", "setting": "[6]; [19]", "value": 5600, "unit": "cPs"}, {"measurement": "% Actives at which blend is clear and homogeneous at 25° C.", "setting": "[6]; two-component blend with linear alkylbenzene sulfonate, 1:1 actives ratio", "value": 51, "unit": "% Actives"}]}
